The source of these data is patent US20180303810A1, “Nimodipine Water-Soluble Derivative, And Preparation Method And Use Thereof” (Guangzhou Henovcom Bioscience Co., Ltd., priority 2015, published 2018).

Data set [1] can be described thus: Release rate into plasma (conversion into Nimodipine). It is filed as in vitro ADME. To be noted: rat, rat anticoagulated plasma, 37° C., HPLC. Here is the method:
A portion of compound 6 was throughly mixed with rat anticoagulated plasma and incubated at 37° C. The drug was extracted with acetonitrile at different time points for HPLC analysis.
The compound sample prepared according to the above examples was dissolved in brine in an appropriate amount to formulate into a stock solution between 0.3 and 0.4 mg/mL. 20 μL of stock solution was added into the rat anticoagulated plasma previously incubated at 37° C. for 2 mins, which were throughly mixed, and incubated at 37° C. 100 μL of samples were taken at different time points, and an equal amount of acetonitrile was added to precipitate proteins, then centrifugated and the supernatant was sampled for HPLC analysis.

Data set [2] in a line: Solubility in water. In kind it is physicochemical. To be noted: pure water, thermodynamic from solid. The protocol:
The compound sample prepared according to the above examples was accurately weighed in an appropriate amount, and pure water was added dropwise with a microsyringe while shaking until the solution became clear. The amounts of the sample and pure water were recorded and converted into mg/mL, as the solubility of the sample. The result was shown in the following table, and the original drug, i.e. Nimodipine, was used as a control.

[3] abbreviates: read-out: half-life for converting compound into Nimodipine in blood (converted).
Setting [4] is: read-out: release rate into plasma t1/2.
Setting [5] is: water at room temperature, read-out: solubility in water.

≈ marks a conversion by molar mass, not a printed value. Like-named read-outs stand apart in the source and are kept apart here. Where only a bound is given, the exact number is not on record here.

For `COCCOC(=O)C1=C(C)N(C(=O)OCOC(=O)/C=C/C(=O)O)C(C)=C(C(=O)OC(C)C)C1c1cccc([N+](=O)[O-])c1` (centres unmarked) [Compound 6], the half-life in data set [1] (setting [3]) and in data set [1] (setting [4]) was roughly 1.5 h in each case. Further, the solubility is greater than 50 mg/mL in data set [2] (read-out: solubility) and 120 mg/mL (≈ 203 mM) in data set [2] (setting [5]).

As for `COCCOC(=O)C1=C(C)N(C(=O)OCOP(=O)(O)O)C(C)=C(C(=O)OC(C)C)C1c1cccc([N+](=O)[O-])c1` (centres unmarked) [Compound 8], the half-life in data set [1] (setting [3]) was roughly 1.5 h; in data set [1] (setting [4]), less than 1.5 h. For the same compound, the solubility is greater than 50 mg/mL in data set [2] (read-out: solubility) and 105 mg/mL (≈ 183 mM) in data set [2] (setting [5]).

Consider `COCCOC(=O)C1=C(C)N(C(=O)OCOC(=O)[C@@H](N)CCCCN)C(C)=C(C(=O)OC(C)C)C1c1cccc([N+](=O)[O-])c1` (some centres unmarked) [Compound 9], for which the half-life in data set [1] (setting [3]) and in data set [1] (setting [4]) was roughly 2.5 h throughout. The results for the solubility in data set [2] (read-out: solubility) and in data set [2] (setting [5]) were greater than 50 mg/mL and 230 mg/mL (≈ 371 mM), respectively.

On to `COCCOC(=O)C1=C(C)N(COP(=O)(O)O)C(C)=C(C(=O)OC(C)C)C1c1cccc([N+](=O)[O-])c1` (centres unmarked) [Compound 12], for which the half-life in data set [1] (setting [3]) and in data set [1] (setting [4]) was less than 0.5 h throughout. For the same compound, the solubility in data set [2] (read-out: solubility) was greater than 50 mg/mL; in data set [2] (setting [5]) it was 80 mg/mL (≈ 151 mM).

For the compound `CNCC(=O)OCOC(=O)N1C(C)=C(C(=O)OCCOC)C(c2cccc([N+](=O)[O-])c2)C(C(=O)OC(C)C)=C1C.Cl` (centres unmarked) [Compound 16], in data set [1] (setting [4]), the half-life was less than 0.5 h. For the same compound, the solubility in data set [2] (read-out: solubility) is greater than 50 mg/mL.

On to `COCCOC(=O)C1=C(C)N(C(=O)OCOC(=O)[C@H](C)N)C(C)=C(C(=O)OC(C)C)C1c1cccc([N+](=O)[O-])c1.Cl` (some centres unmarked) [Compound 18], for which the half-life in data set [1] (setting [4]) is less than 0.5 h. Also, in data set [2] (read-out: solubility), the solubility was greater than 50 mg/mL.

As to `COCCOC(=O)C1=C(C)N(C(=O)OCOC(=O)[C@@H](N)CC(C)C)C(C)=C(C(=O)OC(C)C)C1c1cccc([N+](=O)[O-])c1.Cl` (some centres unmarked) [Compound 20], the half-life in data set [1] (setting [4]) was less than 0.5 h. Also, the solubility in data set [2] (read-out: solubility) was greater than 50 mg/mL.

In the case of `COCCOC(=O)C1=C(C)N(C(=O)OC(C)OC(=O)[C@H](C)N)C(C)=C(C(=O)OC(C)C)C1c1cccc([N+](=O)[O-])c1.Cl` (some centres unmarked) [Compound 23], the half-life in data set [1] (setting [4]) is less than 0.5 h. The solubility in data set [2] (read-out: solubility) was greater than 50 mg/mL.

`COCCOC(=O)C1=C(C)N(C(=O)OC(C)OC(=O)/C=C/C(=O)[O-])C(C)=C(C(=O)OC(C)C)C1c1cccc([N+](=O)[O-])c1.[K+]` (centres unmarked) [Compound 24]: in data set [1] (setting [4]), the half-life was less than 1 h. The solubility in data set [2] (read-out: solubility) is greater than 50 mg/mL.

As to `COCCOC(=O)C1=C(C)N(C(=O)OCOC(=O)CCN)C(C)=C(C(=O)OC(C)C)C1c1cccc([N+](=O)[O-])c1.Cl` (centres unmarked) [Compound 26], in data set [1] (setting [4]), the half-life is less than 0.5 h. The solubility in data set [2] (read-out: solubility) is greater than 50 mg/mL.

On to `COCCOC(=O)C1=C(C)N(C(=O)OC(C)OC(=O)CCCN)C(C)=C(C(=O)OC(C)C)C1c1cccc([N+](=O)[O-])c1.Cl` (centres unmarked) [Compound 28], for which the half-life in data set [1] (setting [4]) is less than 0.5 h. In data set [2] (read-out: solubility), the solubility was greater than 50 mg/mL.

Turning to `COCCOC(=O)C1=C(C)N(C(=O)OCOC(=O)CCCN)C(C)=C(C(=O)OC(C)C)C1c1cccc([N+](=O)[O-])c1.Cl` (centres unmarked) [Compound 30], the half-life in data set [1] (setting [4]) was less than 0.5 h. For the same compound, the solubility in data set [2] (read-out: solubility) was greater than 50 mg/mL.

Consider `COCCOC(=O)C1=C(C)N(C(=O)OCOC(=O)C2CCNCC2)C(C)=C(C(=O)OC(C)C)C1c1cccc([N+](=O)[O-])c1.Cl` (centres unmarked) [Compound 32], for which the half-life in data set [1] (setting [4]) was less than 0.5 h. Further, the solubility in data set [2] (read-out: solubility) is greater than 50 mg/mL.

Take `COCCOC(=O)C1=C(C)N(C(=O)OCOC(=O)CC2CCNCC2)C(C)=C(C(=O)OC(C)C)C1c1cccc([N+](=O)[O-])c1.Cl` (centres unmarked) [Compound 38]: in data set [1] (setting [4]), the half-life was less than 0.5 h. In addition, the solubility in data set [2] (read-out: solubility) was greater than 50 mg/mL.

Turning to `COCCOC(=O)C1=C(C)N(C(=O)OCOC(=O)/C=C/C(=O)[O-])C(C)=C(C(=O)OC(C)C)C1c1cccc([N+](=O)[O-])c1.[Na+]` (centres unmarked) [Compound 39], the half-life in data set [1] (setting [4]) was less than 1 h. Further, the solubility in data set [2] (read-out: solubility) is greater than 50 mg/mL.

Turning to `COCCOC(=O)C1=C(C)N(C(=O)OCOC(=O)CC[C@H](N)C(N)=O)C(C)=C(C(=O)OC(C)C)C1c1cccc([N+](=O)[O-])c1.Cl` (some centres unmarked) [Compound 41], the half-life in data set [1] (setting [4]) was less than 0.5 h. Further, the solubility in data set [2] (read-out: solubility) is greater than 50 mg/mL.

As for `COCCOC(=O)C1=C(C)NC(C)=C(C(=O)OC(C)C)C1c1cccc([N+](=O)[O-])c1` (centres unmarked) [Nimodipine], the solubility in data set [2] (read-out: solubility) was found to be 0.003 mg/mL (≈ 0.00717 mM).

In general, solubility refers to the concentration that dissolves in the medium under given conditions.
